Test results as given in patent publication US5945404A, “21-Substituted steroid compound” (priority 1993, dated 1999).

How the values were obtained:
granuloma = assay: Inhibitory Effects on Granuloma Growth (Paper Disk Method); type: in vivo, male Sprague-Dawley rats; details: rat, paper disk, ointment 0.1%, 50 mg once a day, 7 days
Protocol: (§1) Ointment to be tested was prepared usign white soft paraffin as the base and containing dexamethasone at 0.1% concentration.
Groups of 5 male Sprague-Dawley rats each weighing 150-170 g were used. Under ether anesthesia, the dorsum of animals was closely clipped, and medianly incised. After each one pre-weighed paper disk (8-mm diameter, 1-mm thick, weighing about 30 mg; Toyo-Roshi filter paper) was inserted subcutaneously into both sides of the dorsal incision, the incision was sutured. In order to prevent bacterial infection, penicillin G potassium salt (2,000 units) per rat was intramascularly injected after the surgery. Base or ointment to be tested (50 mg each) was rubbed carefully into the skin over the paper disk inserted site, for 30 seconds once a day for the duration of 7 days. Rats were slipped plastic cangs on to prevent them from licking the drug applied sites. On the 8th day of the test, rats were sacrificed under ether anesthesia, and granulomas were carefully excised. Granulomas were dried at 40° C. for 24 h, and their dry weights were recorded.
Inhibitory effects of dexamethasone derivatives on the weight increase of granuloma of experimental animals as compared with those of control animals are shown as per cent of inhibition ov er the control in Table 1. Figures wihth asterisks in the table indicate signfiicant difference. The same will be applied to the following other tables.

[1] = system: croton oil-induced ear edema; assay: Inhibitory Effects on Croton oil-induced Ear Lobe Edema; type: in vivo, male ddY mice; details: Table 5, ointment 20 mg, mouse ear lobe
Protocol: as §1
Groups of 10 male ddY mice each weighing about 25 g were used. Ointment to be tested (20 mg) was rubbed in the right-side ear lobe, and, 30 min later, a drop of 4 % croton oil dissolved in either was applied to it. Thirty minute after that treatment, mice were sacrificed. Ear lobes on both sides were punched out in the size of 5-mm diameter, and weighed. Results were expressed by calculating the per cent of weight change of the right edema ear as compared with that of the untreated left ear, and compared with that of the control.

| Structure (SMILES) | Weight of granuloma, per cent of change of the controls (granuloma) [per cent] | Percent of inhibition of ear edema [1] [%] | further results |
| --- | --- | --- | --- |
| CC(=O)OC[C@H]1O[C@H](OCC(=O)[C@@]2(O)[C@H](C)C[C@H]3[C@@H]4CCC5=CC(=O)C=C[C@]5(C)[C@@]4(F)[C@@H](O)C[C@@]32C)[C@@H](OC(C)=O)[C@@H](OC(C)=O)[C@@H]1OC(C)=O [Compound 29, mannosyldexamethasone (per Ac derivative)] | -35.7 ± 5.6 | 22.1 ± 4.7 | – |
| CC(=O)OC1C(C)OC(OCC(=O)C2(O)C(C)CC3C4CCC5=CC(=O)C=CC5(C)C4(F)C(O)CC32C)C(OC(C)=O)C1OC(C)=O (stereo not drawn) [Compound 74β, fucosyldexamethasone] | 1.6 ± 16.2 | 14.1 ± 4.5 | – |
| CC(=O)N[C@H]1C(OCC(=O)[C@@]2(O)[C@H](C)C[C@H]3[C@@H]4CCC5=CC(=O)C=C[C@]5(C)[C@@]4(F)[C@@H](O)C[C@@]32C)O[C@H](CO)[C@H](O)[C@@H]1O (stereo partly shown) [Compound 44', N-acetylgalactosaminyldexamethasone] | – | – | Weight of granuloma, per cent of change of the controls (granuloma; listed as 44'): 3.3 ± 4.7 per cent; Percent of inhibition of ear edema ([1]; listed as 44'): 7.9 ± 7.2% |
| CC(=O)N[C@H]1C(OCC(=O)[C@@]2(O)[C@H](C)C[C@H]3[C@@H]4CCC5=CC(=O)C=C[C@]5(C)[C@@]4(F)[C@@H](O)C[C@@]32C)O[C@H](CO)[C@H](O)[C@@H]1O (stereo partly shown) [Compound 45', N-acetylgalactosaminyldexamethasone] | – | – | Weight of granuloma, per cent of change of the controls (granuloma; listed as 45'): -11.8 ± 10.1 per cent; Percent of inhibition of ear edema ([1]; listed as 45'): 21.0 ± 6.4% |
| CC1OC(OCC(=O)C2(O)C(C)CC3C4CCC5=CC(=O)C=CC5(C)C4(F)C(O)CC32C)C(O)C(O)C1O (stereo not drawn) [Compound 75β, β-fucosyldexamethasone] | -10.0 ± 8.8 | 22.0 ± 4.7 | – |
